# Measurements as given in patent EP4745138A1, “THIO-GLUTARIMIDO ISOINDOLINONE DERIVATIVE, BIFUNCTIONAL PROTEIN DEGRADER CONTAINING SAME, AND USES THEREOF” (Gluetacs Therapeutics (Shanghai) Co., Ltd., priority 2023, dated 2025).
# Assays:
# [1] = tested on: Jurkat; test: Tumor cell proliferation inhibition (CellTiter-Meiluncell Luminescent Cell Viability Assay); details: Homo sapiens, 96 hours, Table I-5, designed based on the IRAK4 inhibitors, read-out: Inhibitory activity (IC50, nM) Jurkat
# Method: The tumor cells used herein were cultured in a cell culture medium listed in table 3 at 37°C in an incubator with 5% CO2. Prior to experimentation, all cell lines used were correctly identified by STR profiling, and tested negative for mycoplasma contamination using a mycoplasma detection kit through routine screenings. Table 3. Tumor cells and cell culture medium used in the present disclosure
# The IC50 values of the compounds of the present disclosure (including the compounds in Table 1, Table 2, and Examples) were determined using the CellTiter-Meiluncell Luminescent Cell Viability Assay Kit from Dalian Meilun Biotech Co., Ltd. The detailed procedure is as follows: Tumor cells were seeded in 96-well cell culture plates at the densities specified in Table 4. On the following day, the test compounds of the present disclosure were subjected to serial dilution. […] Subsequently, 0.5 µL of the test compound dilution was transferred into the 96-well plate containing the cells, with each well containing 100 µL of cell culture medium. […] Into the 96-well plate, the diluted test compounds and corresponding detection reagents were added, resulting in final test compound concentrations of 500 nM and 10 nM, respectively. The experimental procedure is described below using the diluted 2 µM test compound as an example.
# 0.5 µL of the aforementioned diluted compound of the present disclosure (including the compounds in Table 1, Table 2, and Examples) was added to the seeded cells in 100 µL of medium, yielding a final test compound concentration of 10 nM. After the cells were treated with the compounds of the present disclosure for a specified period, the cell viability assay reagent was added to the culture medium according to the kit's instructions to determine cell viability. […] All controls were treated using the same procedure as the compounds of the present disclosure. […] Seeding protocol and treatment time for tumor cells
# [2] = tested on: MM.1S; test: as above; format: cell-based; details: Homo sapiens, MM1.S, MM.1S, 96 hours
# Procedure, shortened: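 Following overnight seeding, tumor cells received serial compound dilutions to final levels that included 10 nM and 500 nM. Viability was assessed by luminescence at the end of the specified exposure time. Cultures were kept at 37°C with 5% CO2.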
# [3] = target: T1, human Cereblon WT GST-tagged protein (Homo sapiens, UniProt Q96SW2); test: CRBN-binding affinity, HTRF (CEREBLON BINDING kit); details: for inhibition at 0.5 µM: read-out: Inhibition Rate at 0.5 µM (%); for inhibition at 2 µM: read-out: Inhibition Rate at 2 µM (%)
# T1 construct: purchased CISBIO 64BDCRBNPEH
# Procedure, shortened: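 Compounds are serially diluted in diluent #9 (1X) and added at final 2 µM and 0.5 µM. GST-tagged wild-type Cereblon is added next, followed by premixed thalidomide-red reagent and anti-GST Eu antibody, and HTRF signal is measured.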
# [4] = target: T2, BRG1 (Homo sapiens, UniProt P51532); test: Western blot, target protein degradation in Molt-4 Cell; format: cell-based; details: substrate protein remaining %, treated at 500 nM and 50 nM, 24 hours
# T2 construct: endogenous in cells; host or cells: Molt-4
# Method: (§1) Conventional Western blot assay was performed to evaluate the effects of the compounds of the present disclosure on the expression of target proteins in cells.
# (§2) (1) Cell Seeding and Protein Harvesting: The selected cells were processed according to the cell seeding procedure and protein harvesting procedure in Table II-2. Table II-2 Cell Seeding and Protein Harvesting Procedures
# (§3) (2) To the collected supernatant, 5X SDS sample loading buffer was added, followed by denaturation at 95°C for 5 minutes. The denatured samples were then separated by SDS-PAGE electrophoresis on a polyacrylamide gel. Proteins were transferred to a nitrocellulose membrane (0.45 µm NC membrane), blocked with blocking buffer at room temperature for 1 hour, and subjected to antibody incubation and development procedures according to the antibody manufacturer's instructions (Cell Signaling Technology).
# (§4) Half-Maximal Degradation Concentration value (the drug concentration required for degrading proteins by 50%, abbreviated as DC50) reads method: comparing the grayscale values of Western blot bands from drug-treated samples with those from blank DMSO-treated controls, and identifying the drug concentration range at which the grayscale value is half that of the DMSO-treated control bands.
# (§5) DC50 values can be calculated using ImageJ software to measure grayscale values of Western blot bands from drug-treated samples. […]
# [5] = target: T3, BRM (Homo sapiens, UniProt P51531); test: as above; format: cell-based; details: substrate protein remaining %, treated at 500 nM and 50 nM, 24 hours
# T3 construct: endogenous in cells; host or cells: Molt-4
# Method: as §1, §2, §3, §4, §5
# T1 sequence (Q96SW2 whole entry): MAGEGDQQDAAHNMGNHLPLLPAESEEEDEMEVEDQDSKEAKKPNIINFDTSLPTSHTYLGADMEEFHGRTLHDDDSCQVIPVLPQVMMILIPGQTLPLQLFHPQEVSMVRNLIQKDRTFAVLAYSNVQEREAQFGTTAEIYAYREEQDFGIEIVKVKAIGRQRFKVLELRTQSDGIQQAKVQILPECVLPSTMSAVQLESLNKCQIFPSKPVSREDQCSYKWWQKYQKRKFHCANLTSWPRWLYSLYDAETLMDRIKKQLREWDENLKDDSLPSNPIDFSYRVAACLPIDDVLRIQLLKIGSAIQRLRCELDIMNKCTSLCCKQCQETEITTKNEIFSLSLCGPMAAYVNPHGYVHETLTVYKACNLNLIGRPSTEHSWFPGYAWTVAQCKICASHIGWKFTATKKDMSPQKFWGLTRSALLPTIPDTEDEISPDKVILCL
# T2 sequence (P51532 whole entry): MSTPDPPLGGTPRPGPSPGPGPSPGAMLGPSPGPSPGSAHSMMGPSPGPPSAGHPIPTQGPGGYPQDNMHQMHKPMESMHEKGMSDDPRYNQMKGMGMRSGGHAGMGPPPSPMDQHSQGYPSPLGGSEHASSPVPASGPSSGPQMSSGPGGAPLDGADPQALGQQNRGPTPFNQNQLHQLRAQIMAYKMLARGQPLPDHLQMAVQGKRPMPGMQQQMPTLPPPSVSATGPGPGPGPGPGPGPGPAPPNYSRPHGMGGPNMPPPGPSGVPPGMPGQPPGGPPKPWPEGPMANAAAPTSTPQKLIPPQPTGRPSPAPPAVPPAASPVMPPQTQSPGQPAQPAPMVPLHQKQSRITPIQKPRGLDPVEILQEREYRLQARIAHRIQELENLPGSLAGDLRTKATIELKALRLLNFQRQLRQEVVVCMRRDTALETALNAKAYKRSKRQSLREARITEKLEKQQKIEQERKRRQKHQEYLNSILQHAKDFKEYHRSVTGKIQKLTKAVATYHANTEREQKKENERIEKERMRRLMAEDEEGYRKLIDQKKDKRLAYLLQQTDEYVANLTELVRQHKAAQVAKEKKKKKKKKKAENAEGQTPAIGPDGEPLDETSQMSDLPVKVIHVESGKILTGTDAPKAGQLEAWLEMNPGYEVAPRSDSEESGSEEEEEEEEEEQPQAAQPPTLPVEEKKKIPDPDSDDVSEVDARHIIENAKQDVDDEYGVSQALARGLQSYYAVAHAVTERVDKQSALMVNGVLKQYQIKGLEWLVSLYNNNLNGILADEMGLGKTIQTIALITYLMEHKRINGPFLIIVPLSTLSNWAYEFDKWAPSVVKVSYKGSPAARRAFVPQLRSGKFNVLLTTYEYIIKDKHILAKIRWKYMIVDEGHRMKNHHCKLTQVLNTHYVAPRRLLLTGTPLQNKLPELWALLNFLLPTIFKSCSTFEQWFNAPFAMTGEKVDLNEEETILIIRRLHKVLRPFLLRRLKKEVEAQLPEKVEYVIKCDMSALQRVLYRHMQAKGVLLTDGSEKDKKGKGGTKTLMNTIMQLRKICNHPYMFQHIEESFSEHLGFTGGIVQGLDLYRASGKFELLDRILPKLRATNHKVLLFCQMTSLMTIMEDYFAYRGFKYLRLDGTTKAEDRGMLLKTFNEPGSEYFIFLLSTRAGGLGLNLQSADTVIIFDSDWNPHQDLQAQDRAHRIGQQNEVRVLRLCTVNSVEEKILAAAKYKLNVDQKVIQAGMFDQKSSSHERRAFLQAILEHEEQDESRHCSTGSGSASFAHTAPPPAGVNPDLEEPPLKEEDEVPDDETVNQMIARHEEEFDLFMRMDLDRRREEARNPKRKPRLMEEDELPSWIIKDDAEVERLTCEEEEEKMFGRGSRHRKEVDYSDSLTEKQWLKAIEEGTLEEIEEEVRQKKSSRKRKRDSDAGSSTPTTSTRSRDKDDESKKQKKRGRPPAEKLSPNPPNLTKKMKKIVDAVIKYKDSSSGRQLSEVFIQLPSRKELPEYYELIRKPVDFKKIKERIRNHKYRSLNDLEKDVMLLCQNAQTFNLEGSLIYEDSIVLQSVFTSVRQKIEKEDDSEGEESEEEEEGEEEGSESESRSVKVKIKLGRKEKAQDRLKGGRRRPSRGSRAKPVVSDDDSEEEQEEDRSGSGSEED
# T3 sequence (P51531 whole entry): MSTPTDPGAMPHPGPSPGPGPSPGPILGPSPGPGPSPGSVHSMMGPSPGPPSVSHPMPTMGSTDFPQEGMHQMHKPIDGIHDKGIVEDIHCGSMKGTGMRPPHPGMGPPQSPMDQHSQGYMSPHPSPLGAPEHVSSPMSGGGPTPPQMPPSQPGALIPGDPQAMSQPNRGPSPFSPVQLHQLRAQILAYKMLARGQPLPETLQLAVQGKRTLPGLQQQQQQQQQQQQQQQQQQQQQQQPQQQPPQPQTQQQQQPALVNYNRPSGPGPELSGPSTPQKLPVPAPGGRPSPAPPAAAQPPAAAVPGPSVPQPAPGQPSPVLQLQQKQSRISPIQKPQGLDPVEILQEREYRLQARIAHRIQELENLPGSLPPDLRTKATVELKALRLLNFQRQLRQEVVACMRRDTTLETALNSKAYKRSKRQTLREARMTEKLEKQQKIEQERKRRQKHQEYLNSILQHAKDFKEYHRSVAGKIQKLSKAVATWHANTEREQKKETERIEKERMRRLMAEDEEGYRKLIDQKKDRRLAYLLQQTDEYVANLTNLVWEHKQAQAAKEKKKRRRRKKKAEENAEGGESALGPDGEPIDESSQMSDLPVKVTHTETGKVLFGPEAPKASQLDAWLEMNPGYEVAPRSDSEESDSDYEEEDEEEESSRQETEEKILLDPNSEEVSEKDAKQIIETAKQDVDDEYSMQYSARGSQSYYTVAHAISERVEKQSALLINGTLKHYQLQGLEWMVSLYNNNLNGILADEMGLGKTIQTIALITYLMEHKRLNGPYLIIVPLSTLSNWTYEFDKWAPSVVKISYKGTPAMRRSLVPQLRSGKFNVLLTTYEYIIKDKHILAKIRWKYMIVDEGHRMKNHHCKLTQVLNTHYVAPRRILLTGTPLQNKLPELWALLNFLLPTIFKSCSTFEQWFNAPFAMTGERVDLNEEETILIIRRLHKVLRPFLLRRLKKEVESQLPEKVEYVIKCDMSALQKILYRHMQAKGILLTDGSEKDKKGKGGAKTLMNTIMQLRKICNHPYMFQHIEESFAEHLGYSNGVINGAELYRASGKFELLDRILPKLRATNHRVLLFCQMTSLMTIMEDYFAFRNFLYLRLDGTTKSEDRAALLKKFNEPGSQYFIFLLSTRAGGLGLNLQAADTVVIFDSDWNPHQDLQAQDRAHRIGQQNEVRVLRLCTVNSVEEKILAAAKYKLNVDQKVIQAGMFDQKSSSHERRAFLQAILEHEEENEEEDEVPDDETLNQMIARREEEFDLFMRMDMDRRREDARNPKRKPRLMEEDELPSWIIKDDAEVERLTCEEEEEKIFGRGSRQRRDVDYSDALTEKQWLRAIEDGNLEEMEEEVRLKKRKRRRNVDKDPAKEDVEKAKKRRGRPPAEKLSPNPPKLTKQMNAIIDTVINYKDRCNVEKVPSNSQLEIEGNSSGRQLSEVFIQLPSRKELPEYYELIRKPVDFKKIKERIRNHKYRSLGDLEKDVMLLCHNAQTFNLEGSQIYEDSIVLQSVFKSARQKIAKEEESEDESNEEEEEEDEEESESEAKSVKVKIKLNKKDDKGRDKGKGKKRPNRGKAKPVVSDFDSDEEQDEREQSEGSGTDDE
Structure (SMILES),IC50 [1] [nM],"IC50 ([2]; Table I-5, designed based on the IRAK4 inhibitors, read-out: Inhibitory activity (IC50, nM) MM.1S) [nM]",inhibition at 0.5 µM [3] [%],inhibition at 2 µM [3] [%],Degradation of substrate protein BRG1 [4],Degradation of substrate protein BRM [5],"inhibition at 0.01 µM ([2]; 10 nM, Table I-8, SMARCA2/4 inhibitors, read-out: Inhibition Rate at 10 nM (%)) [%]","inhibition at 0.5 µM ([2]; 500 nM, Table I-8, SMARCA2/4 inhibitors, read-out: Inhibition Rate at 500 nM (%)) [%]"
"COc1cc2nn(C3CCN(Cc4cccc5c4CN(C4CCC(=O)NC4=O)C5=S)CC3)cc2cc1NC(=O)c1cccc(C(F)(F)F)n1 (stereo not shown) [GT-04950, N-(2-(1-((2-(2,6-dioxopiperidin-3-yl)-1-thioxoisoindolin-4-yl)methyl)piperidin-4-yl)-6-methoxy-2H-indazol-5-yl)-6-(trifluoromethyl)picolinamide]",500 to 1000,100 to 500,40 to 53,60 to 80,–,–,–,–
"Nc1nnc(-c2ccccc2O)cc1N1CCN(Cc2ccc3c(c2)C(=S)N(C2CCC(=O)NC2=O)C3)CC1 (stereo not shown) [GT-08787, 3-(6-((4-(3-amino-6-(2-hydroxyphenyl)pyridazin-4-yl)piperazin-1-yl)methyl)-1-thioxoisoindolin-2-yl)piperidine-2,6-dione]",–,–,60 to 80,80 to 100,A (0% ≤ substrate protein remaining % ≤ 80%),A (0% ≤ substrate protein remaining % ≤ 80%),30 to 40,40 to 50
